This is an account of results in patent US20140343001A1, “INDOLE DERIVATIVES INHIBITORS OF ENZYME LACTATE DEHYDROGENASE (LDH)” (Universitá di Pisa, priority 2011, published 2014).

The test system of experiment [1] is A549 cells. Description: Inhibition of tumor cell growth method (b), CellTiter-Glo. The experiment is classed as cell-based. To be noted: Homo sapiens, A549, 72 h. An excerpt:
(§1) CellTiter-Glo® Luminescent Cell Viability Assay (Promega) is a homogeneous method of determining the number of viable cells in culture based on quantitation of the present ATP, which indicates the presence of metabolically active cells. The homogeneous assay procedure involves addition of a single reagent (CellTiter-Glo® Reagent) directly to the cells, which leads to cell lysis and generation of a luminescent signal proportional to the amount of the ATP and the number of cells present in culture. The assay relies on the properties of a proprietary thermostable luciferase (Ultra-Glo® recombinant luciferase), which generates a luminescent signal.
(§2) After 72 h, a volume of CellTiter-Glo® Reagent equal to the volume of cell culture medium was added. The content was mixed for 2 min to induce cell lysis. The luminescence was recorded after further 10 min at RT in order to obtain a stable luminescent signal.
(§3) The IC50 was calculated using GraphPad Software.
A general note: In ATP-based viability assays light output follows the ATP content of the culture.

In experiment [2] the target is T1, hLDH5 (LDH-A) (Homo sapiens, UniProt P00338).
T1 construct: purchased LEEBIO (USA)
The experiment can be described thus: Enzyme inhibition of human lactate dehydrogenase isoform 5. To be noted: ranges of values, pH 7.4; for Ki: 37° C., read-out: inhibitory activity against hLDH5 (Ki); for IC50: room temperature, read-out: inhibitory activity against hLDH5 (IC50). The experiment is classed as biochemical. As to the method:
The compounds described in the examples were evaluated in enzymatic assays to assess its inhibitory properties against two human isoforms of lactate dehydrogenase, hLDH5 containing solely the subunit LDH-A (LEEBIO—USA), and the hLDH1 containing only the LDH subunits-B (Sigma Aldrich, USA), in order to verify the selectivity of these compounds.
(for Ki measurements). Such assays were conducted in cells containing 200 μL of a solution comprising the reagents dissolved in phosphate buffer (KH2PO4 and K2HPO4) at pH 7.4.
IC50 values were calculated as described below. […] Seven different concentrations (in duplicate for each concentration) of compound were used to generate a concentration-response curve. […] Compound solutions were dispensed in 96-well plates (8 μL), then substrate and cofactor dissolved in buffer (152 μl) and enzyme solution (40 μl) were finally added. Dilution of the enzyme stock solution was made to allow a 10% consumption of the cofactor after 15 min. The eventual background fluorescence of the tested compounds or quenching of the NADH fluorescence by the tested compounds was subtracted. In addition to the compound test wells, each plate contained maximum and minimum controls. Assay plates were incubated at room temperature for 15 min and the final measurements were performed using Victor X3 Microplates reader (PerkinElmer®) at a fluorescence emission wavelength of 460 nm (excitation at 340 nm). IC50 were generated using the curve-fitting tool of GraphPad Prism].
The resulting data of enzymatic kinetic (the constants of Michaelis-Menten) were determined by analysis of non-linear regression.

Experiment [3] concerns H1975. The experiment can be described thus: Inhibition of tumor cell growth method (b), CellTiter-Glo. The experiment is classed as cell-based. To be noted: Homo sapiens, NCI-H1975, H1975, 72 h.
Description: as §1, §2, §3

Experiment [4] relates to HeLa. The experiment can be described thus: Inhibition of tumor cell growth method (a), sulforhodamine B assay. The experiment is classed as cell-based. The settings on record: Homo sapiens, 72 hours, SRB. As to the method:
(§4) The plates were incubated at 37° C. in an atmosphere composed of 95% air and 5% CO2 for 72 hours. The culture medium was then removed and the cells were fixed by addition of 50 μL of a 10% solution of trichloroacetic acid in water at 4° C. in each well. The plates were incubated at 4° C. for at least one hour, after which the colorimetric assay of sulforhodamine B (SRB) was carried out to determine the amount of biomass remaining in each well as described in previously developed methodologies [Vichai, V.; Kirtikara, K. Nat. Protoc. […] Briefly, the plates were washed several times with water and dried prior to the addition of 50 μL of a solution of dye sulforhodamine B (composed by 0.057% weight/weight of sulforhodamine B in 1% acetic acid) to each well. After 30 minutes of incubation, the unbound dye was removed by washing six times with 1% acetic acid. […] After an incubation period of 30 minutes, the absorbance in each well was read at a wavelength of 510 nm in a microplate reader. The cells treated only with vehicle consisting of a 1% solution of DMSO (vehicle) were used as control of 100% of live cells in the biomass and the wells incubated with the vehicle alone (without cells) were used to determine the baseline (0%) of live biomass. The IC50 values were calculated using the software SoftMax Pro (Molecular Devices, Sunnyvale, Calif.).
Background: In SRB staining, fixed cells bind dye roughly in proportion to their protein.

The test system of experiment [5] is MCF-7. The experiment is described as above. The experiment is classed as cell-based. The settings on record: Homo sapiens, MCF7; MCF-7, 72 hours, SRB. On the procedure:
as §4

Experiment [6] has as its system HeLa cells. The experiment can be described thus: Determination of cellular production of lactate (GC/MS). Format: cell-based. The settings on record: 8 hours, concentrations from 50 to 200 μM, comparable or superior to 2-DeoxGlu at 10 mM.

As to `O=C(O)c1cc2c(C(F)(F)F)cc(-c3cc(Cl)cc(Cl)c3)cc2n1O` [Example 43, 6-(3,5-dichlorophenyl)-1-hydroxy-4-(trifluoromethyl)-1H-indole-2-carboxylic acid], in experiment [1], the IC50 – broadly, the concentration that gives 50% inhibition – is at most 31 µM. Also, the Ki (usually a dissociation constant, usually derived from enzyme kinetics or from competition with a known ligand) in experiment [2] fell in the range of 1 to 10 µM.
`COC(=O)c1cc2c(C(F)(F)F)cc(-c3cc(Cl)ccc3Cl)cc2n1O` [Example 38, methyl 6-(2,5-dichlorophenyl)-1-hydroxy-4-(trifluoromethyl)-1H-indole-2-carboxylate]: the half-maximal inhibitory concentration (IC50) in experiment [1] and in experiment [3] was at most 31 µM in each case. Further, the inhibition constant (Ki) in experiment [2] lay in the range of 5 to 25 µM.
For the compound `COC(=O)c1cc2c(F)cc(-c3ccc(Cl)cc3Cl)cc2n1O` [Example 53, methyl 6-(2,4-dichlorophenyl)-4-fluoro-1-hydroxy-1H-indole-2-carboxylate], the IC50 in experiment [1] and in experiment [3] was at most 31 µM each time. The Ki in experiment [2] was 5 to 25 µM.
In the case of `COC(=O)c1cc2c(C(F)(F)F)cc(-c3ccc(Cl)cc3Cl)cc2n1O[C@@H]1O[C@H](CO)[C@@H](O)[C@H](O)[C@H]1O` [Example 10, methyl 6-(2,4-dichlorophenyl)-1-(β-D-glucopyranosyl)oxy-4-(trifluoromethyl)-1H-indole-2-carboxylate], the IC50 in experiment [4] is under 15 µM; in experiment [5] it was under 17 µM; in experiment [2], 50 to 500 µM.
For `O=C(O)c1cc2c(C(F)(F)F)cc(-c3ccccc3OC(F)(F)F)cc2n1O` [Example 35, 1-hydroxy-6-(2-(trifluoromethoxy)phenyl)-4-(trifluoromethyl)-1H-indole-2-carboxylic acid], the IC50 in experiment [1] and in experiment [3] was at most 31 µM each time. Further, the Ki in experiment [2] lay in the range of 5 to 25 µM.
For the compound `O=C(OCc1ccccc1)c1cc2c(C(F)(F)F)cc(-c3ccccc3)cc2n1O` [Example 48, benzyl 1-hydroxy-6-phenyl-4-(trifluoromethyl)-1H-indole-2-carboxylate], the IC50 in experiment [1] and in experiment [3] was at most 31 µM each time. Besides, the Ki in experiment [2] fell in the range of 0.5 to 5 µM.
Regarding `COC(=O)c1cc2c(C(F)(F)F)cc(-c3cccc(Cl)c3Cl)cc2n1O` [Example 36, methyl 6-(2,3-dichlorophenyl)-1-hydroxy-4-(trifluoromethyl)-1H-indole-2-carboxylate], the half-maximal inhibitory concentration (IC50) in experiment [1] and in experiment [3] was at most 31 µM in each case. The Ki in experiment [2] fell in the range of 1 to 10 µM.
For `COC(=O)c1cc2c(C(F)(F)F)cc(-c3ccccc3)cc2n1O[C@@H]1O[C@H](CO)[C@H](O)[C@@H](O)[C@H]1O` [Example 40, methyl 1-(β-d-gulopyranosyl)oxy-6-phenyl-4-(trifluoromethyl)-1H-indole-2-carboxylate], the “reduction of cellular production of lactate” value (shortened to “reduction”) in experiment [6] is reported as “reduce effectively cellular production of lactate”.
Take `CC(C)OC(=O)c1cc2c(C(F)(F)F)cc(-c3ccccc3)cc2n1O` [Example 23, isopropyl 1-hydroxy-6-phenyl-4-(trifluoromethyl)-1H-indole-2-carboxylate]: the IC50 in experiment [1] and in experiment [3] was at most 31 µM in each case. In addition, in experiment [6], the “reduction” value is “reduce effectively cellular production of lactate”. Besides, in experiment [2], the Ki lay within 1 to 10 µM.
Take `CC(C)OC(=O)c1cc2c(C(F)(F)F)cc(-c3ccc(Cl)cc3Cl)cc2n1O` [Example 32, isopropyl 6-(2,4-dichlorophenyl)-1-hydroxy-4-(trifluoromethyl)-1H-indole-2-carboxylate]: the IC50 in experiment [1] and in experiment [3] was at most 31 µM in each case. Also, the “reduction” value in experiment [6] was “reduce effectively cellular production of lactate”. In addition, the inhibitory constant (Ki) in experiment [2] lay within 0.5 to 5 µM.
With `COC(=O)c1cc2c(C(F)(F)F)cc(-c3ccccc3OC(F)(F)F)cc2n1O` [Example 34, methyl 1-hydroxy-6-(2-(trifluoromethoxy)phenyl)-4-(trifluoromethyl)-1H-indole-2-carboxylate], the IC50 in experiment [1] and in experiment [3] was at most 31 µM in each case. Also, the Ki in experiment [2] is 5 to 25 µM.
Consider `COC(=O)c1cc2c(C(F)(F)F)cc(-c3ccccc3)cc2n1O[C@H]1O[C@H](CO)[C@@H](O)[C@H](O)[C@@H]1O` [Example 41, methyl 1-(α-d-mannopyranosyl)oxy-6-phenyl-4-(trifluoromethyl)-1H-indole-2-carboxylate], for which the “reduction” value in experiment [6] is on record as “reduce effectively cellular production of lactate”.
Consider `COC(=O)c1cc2c(C(F)(F)F)cc(-c3cc(Cl)cc(Cl)c3)cc2n1O` [Example 42, methyl 6-(3,5-dichlorophenyl)-1-hydroxy-4-(trifluoromethyl)-1H-indole-2-carboxylate], for which the IC50 in experiment [1] and in experiment [3] was at most 31 µM each time. The inhibition constant Ki in experiment [2] is 1 to 10 µM.
With `CCCCOC(=O)c1cc2c(C(F)(F)F)cc(-c3ccc(Cl)cc3Cl)cc2n1O` [Example 33, butyl 6-(2,4-dichlorophenyl)-1-hydroxy-4-(trifluoromethyl)-1H-indole-2-carboxylate], in experiment [6], the “reduction” value is “reduce effectively cellular production of lactate”. Further, the IC50 in experiment [2] is 0.01 to 1 µM.
Regarding `CC(C)OC(=O)c1cc2c(C(F)(F)F)cc(-c3ccccc3)cc2n1O[C@@H]1O[C@H](CO)[C@@H](O)[C@H](O)[C@H]1O` [Example 31, isopropyl 1-(β-D-glucopyranosyl)oxy-6-phenyl-4-(trifluoromethyl)-1H-indole-2-carboxylate], the “reduction” value in experiment [6] is “reduce effectively cellular production of lactate”. Further, the IC50 in experiment [2] was in the range of 50 to 500 µM.
Turning to `CCOC(=O)c1cc2c(C(F)(F)F)cc(-c3ccc(Cl)cc3Cl)cc2n1O` [Example 9, ethyl 6-(2,4-dichloropheyl)-1-hydroxy-4-(trifluoromethyl)-1H-indole-2-carboxylate], the IC50 in experiment [1] and in experiment [3] was at most 31 µM in each case. Further, the “reduction” value in experiment [6] is reported as “reduce effectively cellular production of lactate”. Further, in experiment [2], the Ki is 1 to 10 µM.
`O=C(O)c1cc2c(C(F)(F)F)cc(-c3cccc(OC(F)(F)F)c3)cc2n1O` [Example 25, 1-hydroxy-4-(trifluoromethyl)-6-(3-(trifluoromethoxy)phenyl)-1H-indole-2-carboxylic acid] yielded an IC50 in experiment [1] of at most 31 µM. Moreover, the Ki in experiment [2] fell in the range of 1 to 10 µM.
`COC(=O)c1cc2c(C(F)(F)F)cc(-c3cccc(OC(F)(F)F)c3)cc2n1O` [Example 19, methyl 1-hydroxy-4-(trifluoromethyl)-6-(3-(trifluoromethoxy)phenyl)-1H-indole-2-carboxylate]: the half-maximal inhibitory concentration (IC50) in experiment [1] and in experiment [3] was at most 31 µM each time. In addition, in experiment [2], the Ki fell in the range of 1 to 10 µM.
With `CCCCOC(=O)c1cc2c(C(F)(F)F)cc(-c3ccccc3)cc2n1O` [Example 22, butyl 1-hydroxy-6-phenyl-4-(trifluoromethyl)-1H-indole-2-carboxylate], the half-inhibitory concentration (IC50) in experiment [1] and in experiment [3] was at most 31 µM in each case. For the same compound, in experiment [6], the “reduction” value was “reduce effectively cellular production of lactate”. The Ki in experiment [2] was in the range of 0.5 to 5 µM.
